Source: patent EP4603105A1, “PHARMACEUTICAL COMPOSITION CONTAINING CYCLIC COMPOUND HAVING SELECTIVE KRAS INHIBITORY EFFECT AGAINST HRAS AND NRAS” (CHUGAI SEIYAKU KABUSHIKI KAISHA, priority 2022, dated 2024)
Like-named read-outs stand apart in the source and are kept apart here.

Columns and labels:
[1] = biological target: HRAS wild-type protein (Homo sapiens, UniProt P01112); test: Binding to HRAS by surface plasmon resonance (SPR), KD and KD ratio to KRAS
Summary of the method: (§1)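 Recombinant RAS proteins bearing a biotinylated Avi tag and loaded with GDP served as the captured ligand, recaptured fresh every cycle. Binding responses were referenced to an uncoated surface and a buffer-only blank cycle. Dissociation constants were obtained by 1:1 model fitting at 30°C.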

[2] = biological target: GDP-bound NRAS wild-type protein (Homo sapiens, UniProt P01111); test: Binding to NRAS by surface plasmon resonance (SPR), KD and KD ratio to KRAS
Summary of the method: as §1

[3] = system: human lung cancer strain NCI-H441; test: NCI-H441 cell proliferation inhibitory activity (CellTiter-Glo, 4 days); format: cell-based; conditions: read-out: NCl-H441 IC50
Summary of the method: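 Signal came from […] measured per well once the reagent was added. Beforehand, cells were cultured at 37°C and 5% carbon dioxide on a compound series serially diluted in dimethyl sulfoxide.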

[4] = biological target: GDP-bound KRAS wild-type protein (Homo sapiens, UniProt P01116); test: Binding to KRAS by surface plasmon resonance (SPR), dissociation constant KD
Summary of the method: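 Running buffer contained 10 µM GDP and 10 mM MgCl2 to keep RAS in the GDP state, with 4% DMSO at pH 7.4. Compounds were flowed at 100 µL/min in 75 s steps of rising concentration over captured biotin-Avi RAS at 30°C. Sensorgrams were fitted 1:1 for KD.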

[5] = ratio of KD for HRAS wild-type protein to KD for KRAS
[6] = ratio of KD for GDP-bound NRAS wild-type protein to KD for KRAS
[7] = ratio of KD with respect to HRAS wild-type protein to KD with respect to KRAS
[8] = ratio of KD with respect to GDP-bound NRAS wild-type protein to KD with respect to KRAS
[9] = 50% proliferation inhibitory concentration, four days
[10] = Single Cycle Kinetics, 1:1 binding model

Chain of HRAS wild-type protein (P01112 whole entry): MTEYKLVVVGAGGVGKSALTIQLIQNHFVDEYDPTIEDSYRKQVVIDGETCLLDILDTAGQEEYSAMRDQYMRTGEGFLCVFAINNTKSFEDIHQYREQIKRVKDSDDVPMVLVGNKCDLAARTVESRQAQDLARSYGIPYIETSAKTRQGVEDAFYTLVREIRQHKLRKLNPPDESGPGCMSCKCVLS
Chain of GDP-bound NRAS wild-type protein (P01111 whole entry): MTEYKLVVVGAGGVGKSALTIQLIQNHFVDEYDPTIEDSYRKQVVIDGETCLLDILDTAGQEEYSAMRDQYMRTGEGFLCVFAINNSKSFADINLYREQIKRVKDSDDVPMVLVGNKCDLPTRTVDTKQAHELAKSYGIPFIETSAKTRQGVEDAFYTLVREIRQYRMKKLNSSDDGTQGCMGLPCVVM
Chain of GDP-bound KRAS wild-type protein (P01116 1-188 isoform P01116-2): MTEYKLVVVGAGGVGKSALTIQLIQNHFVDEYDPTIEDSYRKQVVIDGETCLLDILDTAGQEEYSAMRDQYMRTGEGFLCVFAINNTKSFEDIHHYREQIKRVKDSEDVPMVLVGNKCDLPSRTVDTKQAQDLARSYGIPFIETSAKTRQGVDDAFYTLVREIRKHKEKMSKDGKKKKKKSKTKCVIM

| IC50 ([3]; NCI-H441 cells, 4 days) [nM] | Kd ([4]; 1:1 binding model) [nM] | Kd ([4]; Single Cycle Kinetics) [nM] | IC50 [3, 9] [nM] | Kd [4, 10] [nM] | SMILES | HRAS /KRAS [1, 5] | NRAS /KRAS [2, 6] | HRAS /KRAS [1, 7] | NRAS /KRAS [2, 8] |
| --- | --- | --- | --- | --- | --- | --- | --- | --- | --- |
| 10.6 | 0.15 |  |  |  | CCCOC[C@H]1C(=O)N[C@@H]([C@@H](C)CC)C(=O)N(C)CC(=O)N(C)[C@H]2C/C=C\CCN(C2=O)[C@@H](Cc2ccc(C)cc2)C(=O)N(C)CC(=O)N[C@@H](CCc2ccc(C(F)(F)F)c(OC)c2)C(=O)N2C[C@@H](C)C[C@H]2C(=O)NC2(CC(C)(C)C2)C(=O)N(C)[C@@H](C2CCCC2)C(=O)N(C)[C@H](C(=O)N(C)CC)CC(=O)N1C [PP2461] | A (a compound having 10 or more and less than 20 is denoted as A) | A (a compound having 10 or more and less than 20 is denoted as A) |  |  |
| 21.3 |  | 0.2 |  |  | CCCC[C@@H]1NC(=O)C[C@@H](C(=O)N(C)C)N(C)C(=O)[C@H](C2CCCC2)N(C)C(=O)C2(CC(C)(C)C2)NC(=O)[C@@H]2C[C@@H](OCC)CN2C(=O)[C@H](CCc2ccc(C(F)(F)F)c(OC)c2)NC(=O)CN(C)C(=O)[C@H](Cc2ccc(C(F)(F)F)cc2)N2CC/C=C\C[C@@H](C2=O)N(C)C(=O)CN(C)C(=O)[C@H]([C@@H](C)CC)NC1=O [PP3446] | A (a compound having 10 or more and less than 20 is denoted as A) | A (a compound having 10 or more and less than 20 is denoted as A) |  |  |
| 10.9 |  | 0.32 |  |  | CCCO[C@@H]1C[C@H]2C(=O)NC3(CC(C)(C)C3)C(=O)N(C)[C@@H](C3CCCC3)C(=O)N(C)[C@H](C(=O)N(C)CC)CC(=O)N(C)[C@@H](COCC)C(=O)N[C@@H]([C@@H](C)CC)C(=O)N3C[C@@H](F)C[C@H]3C(=O)N(C)[C@H]3C/C=C\CCN(C3=O)[C@@H](Cc3ccc(C(F)(F)F)cc3)C(=O)N(C)CC(=O)N[C@@H](CCc3cc(F)c(C(F)(F)F)c(F)c3)C(=O)N2C1 [PP3401] | A (a compound having 10 or more and less than 20 is denoted as A) | A (a compound having 10 or more and less than 20 is denoted as A) |  |  |
| 10.6 | 0.13 |  |  |  | CC[C@H](C)[C@@H]1NC(=O)[C@H](COC)N(C)C(=O)C[C@@H](C(=O)N(C)CC)N(C)C(=O)[C@H](C2CCCC2)N(C)C(=O)C2(CC(C)(C)C2)NC(=O)[C@@H]2C[C@H](C)CN2C(=O)[C@H](CCc2ccc(C(F)(F)F)c(Cl)c2)NC(=O)CN(C)C(=O)[C@H](Cc2ccc(C)cc2)N2CC/C=C\C[C@@H](C2=O)N(C)C(=O)CN(C)C1=O [PP2506] | A (a compound having 10 or more and less than 20 is denoted as A) | A (a compound having 10 or more and less than 20 is denoted as A) |  |  |
|  |  |  | 93.4 | 0.34 | CCO[C@@H]1C[C@H]2C(=O)NC3(CCC3)C(=O)N(C)[C@@H](C(CC)CC)C(=O)N(C)[C@H](C(=O)N(C)C)CC(=O)N(C)[C@@H](C)C(=O)N[C@@H]([C@@H](C)CC)C(=O)N(C)CC(=O)N(C)[C@H]3C/C=C\CCN(C3=O)[C@@H](Cc3ccc(C(F)(F)F)cc3)C(=O)N(C)CC(=O)N[C@@H](CCc3ccc(Cl)c(Cl)c3)C(=O)N2C1 [PP1214] |  |  | A (a compound having 10 or more and less than 20 is denoted as A) | AA (a compound having 20 or more is denoted as AA) |
| 39.7 |  | 0.68 |  |  | CCCO[C@@H]1C[C@H]2C(=O)NC3(CC(C)(C)C3)C(=O)N(C)[C@@H](C3CCCC3)C(=O)N(C)[C@H](C(=O)N(C)CC)CC(=O)N(C)[C@@H](COCC)C(=O)N[C@@H]([C@@H](C)CC)C(=O)N(C3CC3)CC(=O)N(C)[C@H]3C/C=C\CCN(C3=O)[C@@H](Cc3ccc(C)cc3)C(=O)N(C)CC(=O)N[C@@H](CCc3ccc(C(F)(F)F)c(Cl)c3)C(=O)N2C1 [PP3462] | A (a compound having 10 or more and less than 20 is denoted as A) | AA (a compound having 20 or more is denoted as AA) |  |  |
| 122 | 2.9 |  |  |  | CCOC[C@H]1C(=O)N[C@@H]([C@@H](C)CC)C(=O)N(C2CC2)CC(=O)N(C)[C@H]2C/C=C\CCN(C2=O)[C@@H](Cc2ccc(C)cc2)C(=O)N(C)CC(=O)N[C@@H](CCc2ccc(Cl)c(Cl)c2)C(=O)N2C[C@H](OCC)C[C@H]2C(=O)NC2(CC(C)(C)C2)C(=O)N(C)[C@@H](CC2CCC2)C(=O)N(C)[C@H](C(=O)N(C)C)CC(=O)N1C [PP2762] | A (a compound having 10 or more and less than 20 is denoted as A) | A (a compound having 10 or more and less than 20 is denoted as A) |  |  |
| 15.3 | 0.16 |  |  |  | CCCOC[C@H]1C(=O)N[C@@H]([C@@H](C)CC)C(=O)N(C)CC(=O)N(C)[C@H]2C/C=C\CCN(C2=O)[C@@H](Cc2ccc(C)cc2)C(=O)N(C)CC(=O)N[C@@H](CCc2cc(F)c(C(F)(F)F)c(F)c2)C(=O)N2C[C@@H](C)C[C@H]2C(=O)NC2(CC(C)(C)C2)C(=O)N(C)[C@@H](C2CCCC2)C(=O)N(C)[C@H](C(=O)N(C)CC)CC(=O)N1C [PP2471] | A (a compound having 10 or more and less than 20 is denoted as A) | A (a compound having 10 or more and less than 20 is denoted as A) |  |  |
|  |  |  | 398 | 3.8 | CCO[C@@H]1C[C@H]2C(=O)NC3(CCC3)C(=O)N(C)[C@@H](C3CCCC3)C(=O)N(C)[C@@H](C(=O)N(C)C)CC(=O)N(C)[C@@H](CC)C(=O)N[C@@H]([C@@H](C)CC)C(=O)N(C)CC(=O)N(C)[C@H]3C/C=C\CCN(C3=O)[C@@H](Cc3ccc(C(F)(F)F)cc3)C(=O)N(C)CC(=O)N[C@@H](CCc3cc(F)c(C(F)(F)F)c(F)c3)C(=O)N2C1 [PP1234] |  |  | C (A compound having a KD ratio of 0.1 or more and less than 3 is denoted as C) | B (a compound having 3 or more and less than 10 is denoted as B) |

Further lines, the compound ahead of its results:

| SMILES | IC50 ([3]; NCI-H441 cells, 4 days) [nM] | Kd ([4]; 1:1 binding model) [nM] | Kd ([4]; Single Cycle Kinetics) [nM] | IC50 [3, 9] [nM] | Kd [4, 10] [nM] | HRAS /KRAS [1, 5] | NRAS /KRAS [2, 6] | HRAS /KRAS [1, 7] | NRAS /KRAS [2, 8] |
| --- | --- | --- | --- | --- | --- | --- | --- | --- | --- |
| CCC(CC)[C@H]1C(=O)N(C)[C@H](C(=O)N2CCCCC2)CC(=O)N(C)[C@@H](COC)C(=O)N[C@@H]([C@@H](C)CC)C(=O)N(C)CC(=O)N(C)[C@H]2C/C=C\CCN(C2=O)[C@@H](Cc2ccc(C(F)(F)F)cc2)C(=O)N(C)CC(=O)N[C@@H](CCc2cc(F)c(C(F)(F)F)c(F)c2)C(=O)N2C[C@H](OC(C)C)C[C@H]2C(=O)NC2(CC(C)(C)C2)C(=O)N1C [PP2608] | 53 | 1.4 |  |  |  | A (a compound having 10 or more and less than 20 is denoted as A) | AA (a compound having 20 or more is denoted as AA) |  |  |
| CCC[C@H]1C(=O)N[C@@H]([C@@H](C)CC)C(=O)N(C)CC(=O)N(C)[C@H]2C/C=C\CCN(C2=O)[C@@H](Cc2ccc(C)cc2)C(=O)N(C)CC(=O)N[C@@H](CCc2ccc(Cl)c(Cl)c2)C(=O)N2C[C@H](OC(C)C)C[C@H]2C(=O)NC2(CC(C)(C)C2)C(=O)N(C)[C@@H](C(CC)CC)C(=O)N(C)[C@H](C(=O)N(C)C)CC(=O)N1C [PP2537] | 75.1 | 0.74 |  |  |  | A (a compound having 10 or more and less than 20 is denoted as A) | AA (a compound having 20 or more is denoted as AA) |  |  |
| CC[C@H](C)[C@@H]1NC(=O)[C@H](CC)N(C)C(=O)C[C@@H](C(=O)N2CCOCC2)N(C)C(=O)[C@H](C2CCCC2)N(C)C(=O)C2(CCC2)NC(=O)[C@@H]2CCCN2C(=O)[C@H](CCc2cc(F)c(C(F)(F)F)c(F)c2)NC(=O)CN(C)C(=O)[C@H](Cc2ccc(C(F)(F)F)cc2)N2C[C@H](C)[C@H](C)C[C@@H](C2=O)N(C)C(=O)CN(C)C1=O [PP1366] |  |  |  | 14 | 0.11 |  |  | B (a compound having 3 or more and less than 10 is denoted as B) | A (a compound having 10 or more and less than 20 is denoted as A) |
| CCC[C@H]1C(=O)N[C@@H](C2CCCC2)C(=O)N(C)CC(=O)N(C)[C@H]2C/C=C\CCN(C2=O)[C@@H](Cc2ccc(C)cc2)C(=O)N(C)CC(=O)N[C@@H](CCc2ccc(C(F)(F)F)c(Cl)c2)C(=O)N2CC3(CC3)C[C@H]2C(=O)N(C)C2(CCC2)C(=O)N(C)[C@@H](CC(C)(C)C)C(=O)N(C)[C@H](C(=O)N(C)C)CC(=O)N1C [PP3328] | 1.7 |  | 0.026 |  |  | B (a compound having 3 or more and less than 10 is denoted as B) | A (a compound having 10 or more and less than 20 is denoted as A) |  |  |
| CCO[C@@H]1C[C@H]2C(=O)NC3(CCCC3)C(=O)N(C)[C@@H](C3CCCC3)C(=O)N(C)[C@H](C(=O)N3CCOCC3)CC(=O)N(C)[C@@H](CC)C(=O)N[C@@H]([C@@H](C)CC)C(=O)N(C)CC(=O)N(C)[C@H]3CC[C@@H](C)CN(C3=O)[C@@H](Cc3ccc(C(F)(F)F)cc3)C(=O)N(C)CC(=O)N[C@@H](CCc3ccc(C(F)(F)F)c(Cl)c3)C(=O)N2C1 [PP1377] |  |  |  | 5.8 | 0.087 |  |  | B (a compound having 3 or more and less than 10 is denoted as B) | B (a compound having 3 or more and less than 10 is denoted as B) |
| CCC[C@H]1C(=O)N[C@@H]([C@@H](C)CC)C(=O)N2CCC[C@H]2C(=O)N(C)[C@H]2C/C=C\CCN(C2=O)[C@@H](Cc2ccc(C)cc2)C(=O)N(C)CC(=O)N[C@@H](CCc2ccc(Cl)c(Cl)c2)C(=O)N2C[C@H](OCC)C[C@H]2C(=O)NC2(CC(C)(C)C2)C(=O)N(C)[C@@H](C(CC)CC)C(=O)N(C)[C@H](C(=O)N(C)C)CC(=O)N1C [PP2638] | 97 | 2.5 |  |  |  | A (a compound having 10 or more and less than 20 is denoted as A) | AA (a compound having 20 or more is denoted as AA) |  |  |
